# What was measured:
# NCI-H295R cells = experiment: Lipidomic analysis (LC-MS/MS) of mitochondrial fractions of NCI-H295R cells treated with SC-26196; format: cell-based, Human; conditions: SC-26196 10 µM, 18 h vs DMSO
# Description: NCI-H295R cells (obtained from ATCC Cat# CRL-2128) were maintained in DMEM/F12 medium supplemented with 2.5 % Nu-Serum type I (Corning), 1 % Insulin Transferrin Selenium (ITS; Gibco), 50 U/mL penicillin and 50 µg/mL streptomycin. They were treated for 18 h with 10 µM SC-26196 or DMSO. In some experiments, NCI-H295R cells were treated or not for 48 h 66 µM EPA and in the last 24 h they were stimulated or not with forskolin (10 µM; Sigma-Aldrich).
# Cells were trypsinized and pelleted by centrifugation (500xg, 5 min, 4 °C). The cells were gently resuspended in homogenization buffer (200 mM mannitol, 50 mM sucrose, 10 mM KCI, […] 25 mM HEPES, pH 7.4, 1 µM aprotinin, 10 µM leupeptin, 20 µM PMSF) and homogenized on ice with 20 strokes of tight Dounce homogenizer. The samples were then centrifuged (800xg, 10 min, 4 °C) to pellet the nuclei. The supernatant was mixed with iodixanol solution (Optiprep, Sigma-Aldrich) to a final concentration of 20 %. The samples were placed at the bottom of a tube and overlaid with 500 µl iodixanol solutions (18 %, 16 %, 14 %, 12 %, 10 %, 5 %) and finally with 500 µl of HBS (50 mM HEPES, 150 mM NaCl, pH 7.4). The samples were centrifuged in Beckman SW60Ti swing-out rotor (45,000 rpm, 5 h, 4 °C). After centrifugation fifteen 280 µl aliquots were collected from top of the tubes.
# Fractions 10-12 (SDHB-positive) and 4-5 (HSL-positive) were considered as mitochondrial and lipid droplet fractions, respectively. Protein concentration was measured in the mitochondrial and lipid droplet pools with the BCA Protein Assay Kit (Thermo Fisher) and fractions were analyzed for cholesterol and CE concentrations.
# Fractions containing mitochondria were combined and extracted with three volumes of ice-cold chloroform/methanol (10:1, v/v, both containing 0.1 % butylated hydroxytoluene (Merck, ≥99 %)). Samples were incubated on ice for 15 min, before the organic phase was collected after centrifugation (5 min, 5,000 × g). The aqueous phase was re-extracted with two volumes chloroform/methanol as described above. Combined organic phases were dried in vacuo. Methanol (ULC-MS grade, Biosolve B.V.) and chloroform (EMSURE ACS, ISO, Reag. Ph Eur; Supleco) were of highest purity.
# Lipid extracts were dissolved in 50 µL 2-propanol (ULC/MS-CC/SFC grade, >99.95 %; Biosolve B.V.) and analyzed by LC-MS/MS. Lipids (2.5 µL loaded in positive mode, 5 µL in negative mode) were separated by reverse phase chromatography (Accucore C30 column; 150 mm × 2.1 mm 2.6 µM 150 Å, Thermo Fisher Scientific) using a Vanquish Horizon UHPLC system (Thermo Fisher Scientific) coupled on-line to a Q Exactive Plus Hybrid Quadrupole Orbitrap mass spectrometer (Thermo Fisher Scientific, Bremen, Germany) equipped with a HESI source. Column was operated at 50 °C and flow rate of 0.3 mL/min. […]
# [1] = tested on: primary adrenocortical cells; experiment: Flow cytometry with Mitotracker Green and TMRE in primary adrenocortical cells treated with SC-26196; format: cell-based, WT C57BL/6J mice; conditions: SC-26196 10 µM, 18 h vs DMSO; n=6
# Description: Adrenocortical cells (CD31-CD45-) were treated for 18 h with DMSO or SC-26196 (10 µM) and were then incubated with Mitotracker Green (0.25 µM; Invitrogen), TMRE (2.5 µM; Thermofisher), for 30 min at 37°C in FACS buffer (0.5 % BSA, 2 mM EDTA in PBS) in dark. Live cells were selected by DAPI staining. FACS was performed using LSR Fortessa X20 flow cytometer and data were analyzed with the FlowJo software.
smiles,measurement,setting,value
N#CC(CCCN1CCN(/N=C/c2cccnc2)CC1)(c1ccccc1)c1ccccc1 [SC-26196],abundance of PC and PE containing PUFA acyl chains in mitochondrial fractions,NCI-H295R cells,reduced
same,lipids with saturated or monounsaturated acyl chains in mitochondrial fractions,NCI-H295R cells,increased
same,mitochondrial lipidome (PCA),NCI-H295R cells; n=3,reprogramed the mitochondrial lipidome
same,Cardiolipins in mitochondrial fractions,NCI-H295R cells; not shown,remained unaffected
same,mitochondrial load (Mitogreen staining),[1],decreased
same,mitochondrial membrane potential (TMRE staining),[1],decreased

# — EP4458352A1, “EICOSAPENTAENOIC ACID ESTER DERIVATIVES FOR THE TREATMENT OF OBESITY” (Technische Universität Dresden, priority 2023, dated 2024)
